Results reported in patent US20120301551A1, “COMPOUNDS AND COMPOSITIONS FOR TREATING NEURONAL DEATH OR NEUROLOGICAL DYSFUNCTION” (Neurotech Pharmaceuticals Co., Ltd., priority 2005, published 2012).

What was measured:
[1] = test system: Fas, FADD, cleaved caspase-8 and caspase-3; test: Fas pathway in lumbar spinal cord of G93A transgenic mice (Western blot); conditions: at 12 weeks of age; 2-hydroxy-TTBA 30 mg/kg/d, Li^+ 200 mg/kg/d in the diet
Method: G93A transgenic mice received oral administration of 2-hydroxy-TTBA (30 mg/kg/d) in the diet from 8 weeks of age.

[2] = test system: APPswe/PS1deltaE9 double transgenic mice; test: amyloid plaque burden in APPswe/PS1deltaE9 double transgenic mice (Thioflavin-S); format: in vivo, mouse
Method: The treatment with 25 mg/kg/day of chemical 01 for 7 months (from 3.5 to 10.5 month-old APP/PS1) caused a significant 53% reduction in amyloid plaque burden compared to APP/PS1 dementia mouse fed with general chow only.
10.5 month-old APPswe/PS1deltaE9 double transgenic mice were fed chow alone (saline only), or containing 25 mg/kg/day of chemical—01, for 7.5 months before being sacrificed (3˜10.5 month). 18-20 μm brain sections stained 1% Thioflavin-S for 5 min and observed under fluorescence microscope system.

Tg2576 transgenic mice [3] = test: Morris water maze in Tg2576 transgenic mice; format: in vivo, mouse; conditions: 25 mg/kg/day for 5 months (9~14 months)
Method: 14 month-old Tg2576 transgenic mice were fed chow alone, or containing 25 mg/kg/day of chemical 01, for 5 months (9˜14 months). After administration of 5 months, the cognitive function was analyzed by Morris water maze test. Training was performed 4 times a day (4 trials/day) for 5 days. If mouse stay on the platform for over 10 seconds, it is thought to be a success. After 5 days of experiments, the latency to find the platform was recorded and analyzed for each mouse (mean±SEM, n=2).
14 month-old Tg2576 transgenic mice were fed chow alone (saline only), or containing 25 mg/kg/day of chemical—01, for 5 months (9˜14 month).
The cognitive function was analyzed by Morris water maze test. Mice ware trained to perform a hidden platform task in the Morris water maze. The latency to find the platform was recorded for each mouse.

Tg2576 transgenic mice [4] = test: brain Aβ42/Aβ40 levels in Tg2576 transgenic mice (ELISA); format: in vivo, mouse; conditions: 25 mg/kg/d for 8 months (9~17 months)
Method: 17 month-old Tg2576 transgenic mice were fed chow alone, or containing 25 mg/kg/day of chemical 01, for 8 months before being sacrificed (9˜17 months). The level of Aβ42 or Aβ40 protein was quantitatively analyzed by colorimetric sandwich ELISA kit (BIOSOURCE, Camarillo, Calif.) (mean±SEM, n=2).
17 month-old Tg2576 transgenic mice were fed chow alone (saline only), or containing 25 mg/kg/day of chemical—01, for 8 months before being sacrificed (9˜17 month). SDS-soluble/insoluble Aβ42 or Aβ40 levels were analyzed by colorimetric sandwich ELISA kit (BIOSOURCE, Camarillo, Calif.).

IL-1β = test: LPS-induced IL-1β production in BV2 cells; format: cell-based
Method: Suppressing effects of chemical 01 in BV2 cell lines on production of IL-1β, IL-6 or TNF-α were evaluated. BV2 cells were exposed to 1 ug/ml LPS (inflammation-inducing material) with inclusion of chemical 01 at indicated doses. After 4 hours, supernatant were collected and concentrations of TNF-a were evaluated. In addition, BV2 cells were treated by the same method, and 24 hours later, supernatant were collected and concentrations of IL-1β and IL-6 were evaluated (mean±SEM, n=3). BV2 cells treated with LPS only were used as control.

gastric mucous membrane = gastric mucous membrane damage after oral administration; format: in vivo; conditions: 1,000 mg/kg orally administered
Method: FIG. 10 is results showing degrees of the gastric mucous membrane damage. Test samples were orally administered in a different dose. […] Aspirin was used as control.
Conventional NSAIDs have side effects causing damages to the gastric mucous membrane. Therefore, it was evaluated whether chemical 01 having anti-inflammatory effect causes the gastric damage or not. 30, 100 or 300 mg/kg of aspirin was orally administered as control.

[5] = test system: APPswe/PS1deltaE9 double transgenic mice; test: open field activity in APPswe/PS1deltaE9 double transgenic mice; format: in vivo, mouse; conditions: 25 mg/kg/day chemical 01 or 62.5 mg/kg/day ibuprofen for 14.5 months (3~17.5 months)
Method: After administration of drug for 14.5 months, Open field activity test was performed to evaluate locomotor activity and exploratory behavior. 4×4 of scale marks were drawn in white acryl box having a size of 60 cm×60 cm×35 cm (width×length×height) to make sixteen squares. Four squares in the center became center zone and twelve squares around the center zone became peripary zone. Mice were laid into transparent acryl tube (diameter: about 3.5 inches) laid at the left corner of the acryl box for 30 seconds. After 30 seconds, acryl tube was removed to make mouse free. Experiment was once performed for each mouse for 5 minutes. The distance traveled in the open field was recorded (mean±SEM, n=3-5).
17.5 month-old APPswe/PS1deltaE9 double transgenic mice were fed chow alone (saline only), or containing 25 mg/kg/day of chemical—01, for […] (3˜17.5 month).
Open field activity was used to evaluate locomotor activity and exploratory behavior. The distance traveled in the open field was recorded and performance was analyzed after the testing took place.

G93A mice = test: inflammatory cytokine mRNA in lumbar segments of G93A mice (RT-PCR); format: in vivo, mouse; conditions: 16 week-old G93A mice, 5 mg/kg/day or 20 mg/kg/day in chow
Method: Lumbar segments of 16 week-old G93A mice fed with general chow only, and 16 week-old G93A mice fed with chow containing 5 mg/kg/day or 20 mg/kg/day of chemical 01 were extracted and their RNA were separated. The mRNA expression degrees of TNF-a and IL-16, cytokines inducing inflammation, were evaluated through RT-PCT.

APP/PS1 mouse = test: plasma Aβ40/Aβ42 levels in APP/PS1 mouse; format: in vivo
Method: Also, treatment with 25 mg/kg/day of chemical 01 for 5 days in 11.5 month-old APP/PS1 mouse caused a significant 44% reduction in SDS-insoluble Aβ42 levels in plasma and a significant 38% reduction in SDS-insoluble Aβ40 levels in plasma compared to APP/PS1 mouse fed with general chow only.
In further, treatment with 25 mg/kg/d of chemical—01 for 7 months (from 3.5 to 10.5 months) caused a significant 42% reduction in SDS-insoluble Aβ40 levels (data not shown). Also, treatment with 25 mg/kg/d of chemical—01 for 5 days in 11.5 months caused a significant 40% reduction in SDS-insoluble Aβ40/Aβ42 levels in plasma (data not shown).

[6] = 25 mg/kg/day for 5 days in 11.5 month-old APP/PS1 mouse

Row | SMILES | levels of Fas, FADD, cleaved caspase-8 and caspase-3 (Fas pathway) in lumbar spinal cord [1] | reduction in amyloid plaque burden ([2]; 25 mg/kg/day for 7 months (from 3.5 to 10.5 month-old)) | reduction in plaque burden ([2]; 25 mg/kg/day for 7.5 months (3~10.5 month)) | reduction in amyloid plaque burden ([2]; 25 mg/kg/day, from 8.5 to 12.5 month-old (4 months)) | escape latency (latency to find the platform) (Tg2576 transgenic mice [3]) | SDS-soluble/insoluble Aβ42 and Aβ40 levels, in words (Tg2576 transgenic mice [4]) | SDS-soluble/insoluble Aβ42 and Aβ40 levels, in words (Tg2576 transgenic mice [4]; listed as chemical—01) | decrease of IL-1β released into media (IL-1β; 100 uM, 1 ug/ml LPS, 24 hours) | IL-1β decrease, in words (IL-1β; 1~100 uM) | gastric side effect (damage of the gastric mucous membrane) (gastric mucous membrane) | gastric side effect (damage of the gastric mucous membrane) (gastric mucous membrane; listed as Chemical 01) | open field activity (distance traveled) [5] | mRNA expression of TNF-a and IL-16, cytokines inducing inflammation (G93A mice) | reduction in SDS-insoluble Aβ40/Aβ42 levels in plasma (APP/PS1 mouse; 25 mg/kg/d for 5 days in 11.5 months) | reduction in SDS-insoluble Aβ40 levels in plasma (APP/PS1 mouse; [6]) | reduction in SDS-insoluble Aβ42 levels in plasma (APP/PS1 mouse; [6])
1 | O=C(O)c1cc(NCc2c(F)c(F)c(C(F)(F)F)c(F)c2F)ccc1O [2-Hydroxy-TTBA, 2-hydroxy-5-(2,3,5,6-tetrafluoro-4-trifluoromethyl-benzylamino)-benzoic acid] | slightly attenuated |  |  |  |  |  |  |  |  |  |  |  |  |  |  | 
2 | O=C(O)c1cc(NCCc2ccc(C(F)(F)F)cc2)ccc1O [chemical 01, 2-Hydroxy-5-[2-(4-trifluoromethyl-phenyl)-ethylamino]-benzoic acid] |  | 53% | 53.4% | 49.3% | shorter | decreased | reduced | about 80% | dose-dependent manner | did not cause damage of the gastric mucous membrane | did not cause the gastric side effect | reduced significantly | effectively reduced | 40% | 38% | 44%
